Laboratory results published in patent US9072729B2, “Method for treating fibrosis and cancer with imidazolium and imidazolinium compounds” (Agency for Science, Technology and Research, priority 2008, dated 2015).

Columns and labels:
HLE cells = assay: DNA content analysis (cell cycle) in HLE cells; type: cell-based, human; settings: 0, 1, 3 mM, 24 hr
Procedure: FIG. 21. DBZIM inhibited cell proliferation and disrupted cell cycle in HLE cells (A). DBZIM inhibited HCC cell proliferation. HLE cells were seeded at a density of 5000 cells/well in 96-well plate, and cultured for 18-24 h in 10% […] DMEM before the addition of various compounds (0-1.25 mM) in 10% FBS DMEM for 48 h of proliferation before assaying. Cell count was calculated based on Hoechst dye staining and BrdU incorporation was based on the total fluorescence intensity of antibody staining. (B). DBZIM arrested HCC cells at G0/G1 phase. HLE cells were incubated with DBZIM (0, 1, 3 mM) for 24 hr before fixation and DAPI staining for DNA content (2N vs. 4N) determination.
HLE cells grown in a 96-well plate were treated with compounds in 6 replicates for 24 hr. Cells were then fixed with 4% paraformaldehyde and stained with DAPI. Cells were analyzed and imaged on ArrayScan VTI HCS reader (Thermal Scientific, PA, USA) and DNA content (2N vs. 4N) was determined based on DAPI staining.

HepG2 cells = assay: Cell based caspase 3/7 and LDH assays, HepG2; design: species or system human; settings: HepG2, 6 hr
Procedure: FIG. 22. […] HLE or HepG2 cells were incubated with DBZIM of various concentrations for 6 hr, and assayed for caspase 3/7 activity and LDH releasing (expressed as % toxicity). DBZIM induced apoptosis as characterized by annexin V staining using flow cytometer in HLE (E) and HepG2 (F). Scatter plot and histogram gave the representative information on the cell population distribution while bar graphs quantified the percentage of apoptotic cells from the histogram. HLE and HepG2 cells were treated by DBZIM of various concentrations for 24 hr before harvesting for annexin V staining and flow cytometric analysis.
Capspase 3/7 activity and lactate dehydrogenase (LDH) release were measured by Fluorometric assays (Promega Corp., WI, USA). The HCC cells were cultured in 96-well plate and treated with DBZIM of various concentrations for 6 hr before assays. For caspase 3/7 assay, medium was removed and substrate buffer was added to lyse the cell and react with caspase 3/7 to give rise to fluorescence signal which was read at Ex=485 nm and Em=530 nm on a Tecan Safire II plate reader after 1 hr incubation. The caspase 3/7 activity of sample cells with the compound treatment was expressed as relative fold change after normalizing to the control cells. The LDH assay (indicative of membrane integrity) was performed using a Kit from Promega Corp according to manufactor's instructions.

[1] = test system: cytochrome C in HLE cells; assay: Western blot of cytochrome c release from mitochondria to cytosol; type: cell-based, human; settings: 1.5 mM, 24 hr
Procedure: FIG. 23. (A). […] HLE cells were grown in a T75 flask and treated with DBZIM for 24 hr. The cells were then lysed and cytoplasmic protein was collected for assaying caspase 8, 9 and 3 using kits from Biovision. The data was normalized against the vehicle control. (B). […] HLE cells were treated by DBZIM of 1.5 mM for 24 hr. Cytosolic and mitochondria protein fractions were collected using a kit from Biovision. 15 μg of each protein was resolved in 4-12% gradient PAGE-SDS gel. The target proteins were recognized by antibody of cytochrome C, and visualized by the ECL method. […]
Protein extracts were prepared by lysing cell pellet in RIPA buffer (Pierce, Ill., USA) for total protein extract, or in NE-PER reagent from Pierce (Pierce, Ill., USA) for nuclear and cytoplasmic fractions, or in a Kit from BioVision (CA, USA) for mitochondria and cytosol fractions. Protein content was quantified using BCA Kit (Pierce, Ill., USA). […] The membrane was then probed with primary antibodies against Bcl-XL, Bak, Bcl-2α, Bax (Lab Vision Corp., CA, USA), survivin, xIAP, cIAP (R&D systems Inc., MN, USA), c-Jun, c-Fos, JunB, JunD, Fra-1, Fra-2 (Santa Cruz Biotechnology, CA, USA) respectively, and detected by horseradish peroxidase-conjugated secondary antibody (Santa Cruz Biotechnology, CA, USA). Protein bands were recorded on X-ray film by reacting with ECL chemiluminescence reagents (Amersham Biosciences, NJ, USA). […]

H1299 = assay: Proliferation assay (MTS), lung cancer cell line; type: cell-based; settings: Homo sapiens, NCI-H1299, 72 h, determined at day 3
Procedure: (§1) Proliferation of Glioma cell lines: U87 MG and C6 under the treatment of DBZIM was examined using 3-(4,5-dimethylthiazol-2-yl)-5-(3-carboxymethoxyphenyl)-2-(4-sulfophenyl)-2H-tetrazolium (MTS) based proliferation assay kit (Promega, Wis., USA). MTS reagent was added to the control and treated cells (after 48 hr) directly and the absorbance signal was read at 490 nm using a Tecan Safire II plate reader.
(§2) The IC50 value (determined at day 3) was 50 μM for H1299 (lung cancer); 50 μM for MCF-7 (breast cancer), and 40 μM for AGS gastric cancer at day 3 (Table 3).

AGS = assay: Proliferation assay (MTS), gastric cancer cell line; type: cell-based; settings: Homo sapiens, 72 h, day 3
Procedure: as §1, §2

IMR90 = assay: Cytotoxicity on normal (non-cancerous) lung cells; type: cell-based
Procedure: as §2

Huh7 cells = assay: HCC xenograft model (Huh7 cells in Balb/c nude mice); type: in vivo, mouse; settings: 2 grams/liter in drinking water, 3 weeks
Procedure: (§3) Balb/c Nude mice, 5-6 weeks old, were inoculated with 1×10^7 Huh7 cells in 0.2 ml volume of Matrigel/DMEM mix. Since not every mouse developed a tumor after the inoculation of HCC cells, only those with visible tumors (about 8 weeks after inoculation) were used for subsequent experiment. The tumor-bearing mice were randomly divided to the control and the treatment group. (n=3), respectively. Mice in the treatment group had free access to drinking water containing DBZIM (2 grams/liter) only, while mice in the control group had free access to Water only. The compound treatment lasted for 3 weeks. The tumor size was measured weekly, and the tumor volume was calculated using the formula: 0.52×width^2×length.
as §3, with “group” for “group.”, “compound 9 (IBN-9) at 0.6 g/l or 1.5 g/l” for “DBZIM (2 grams/liter)”, “water” for “Water”

In the case of `[Br-].c1ccc(Cn2cc[n+](Cc3ccccc3)c2)cc1` [DBZIM, 1,3-bisbenzylimidazolium bromide], the cell cycle arrest (HLE cells) is reported as “arrested HLE cells in the G0/G1 phase”, the LDH release (HepG2 cells) is reported as “least affected” and the “caspase 3/7 activity” value (HepG2 cells) is reported as “enhanced”. For the same molecule, the “release of cytochrome C from the mitochondria to the cytosol” value [1] was “minimal release”, the IC50 (H1299) was 50 µM and the IC50 (AGS) was 40 µM. For the same molecule, the “cytotoxicity on normal lung cells” value (IMR90) was “much less cytotoxicity”, the “decrease of body weight” value (Huh7 cells) was 17% and the “reduction of tumor volume” value (Huh7 cells) was 40%.
